The values below come from ChEMBL document CHEMBL4130613, “Identification and Proposed Relative and Absolute Configurations of Niphimycins C-E from the Marine-Derived Streptomyces sp. IMB7-145 by Genomic Analysis” (J Nat Prod, 2018).

Values after ≈ are worked out from the molar mass of the structure shown.

What all share (assay type): functional
Test [1] relates to Mycobacterium tuberculosis. Kind of test: Antibacterial activity against isonizaid/rifampicin-resistant Mycobacterium tuberculosis isolate FJ05120 after 18 hrs by agar dilution method. The following applies: isolate FJ05120, 18 h.
For test [2], the system named is Mycobacterium tuberculosis. The experiment in a line: Antibacterial activity against isonizaid/rifampicin/streptomycin/ethambutol-resistant Mycobacterium tuberculosis isolate FJ05195 after 18 hrs by agar dilution method. Conditions: isolate FJ05195, 18 h. Background: Agar dilution tests growth on a series of plates holding different concentrations.
For test [3], the system named is Mycobacterium tuberculosis. The experiment in a line: Antibacterial activity against isonizaid/rifampicin/streptomycin/ethambutol-resistant Mycobacterium tuberculosis isolate FJ05436 after 18 hrs by agar dilution method. Conditions: isolate FJ05436, 18 h.

In general, MIC refers to the lowest concentration found to suppress growth. A low value points to greater potency. Consider `CNC(=N)NCCC/C=C/CCC[C@H](C)C[C@H](C)[C@H]1OC(=O)[C@H](C)[C@H](O)/C=C/[C@H](C)[C@H](O)C[C@H](O)[C@H](C)[C@@H](O)CC[C@H](C)[C@H](O)C[C@]2(O)O[C@H](C[C@@H](O)C[C@H](OC(=O)CC(=O)O)C[C@@H](O)[C@H](C)[C@H](O)/C=C/C=C/[C@@H]1C)C[C@H](O)[C@H]2O`, for which the results for the MIC in test [1], in test [2] and in test [3] were 4 to 16 µg/mL (≈ 3.5 to 14 µM), 4 to 32 µg/mL (≈ 3.5 to 28 µM) and 4 to 32 µg/mL (≈ 3.5 to 28 µM), respectively.

Regarding `CNC(=N)NCCC/C=C/CCC[C@H](C)C[C@H](C)[C@H]1OC(=O)[C@H](C)[C@H](O)/C=C/[C@H](C)[C@H](O)C[C@H](O)[C@H](C)[C@@H](O)CC[C@H](C)[C@H](O)C[C@]2(O)O[C@H](C[C@@H](OC(=O)CC(=O)O)C[C@H](O)C[C@@H](O)[C@H](C)[C@H](O)/C=C/C=C/[C@@H]1C)C[C@H](O)[C@H]2O`, the values for the minimal inhibitory concentration (MIC) in test [1], in test [2] and in test [3] were 4 to 16 µg/mL (≈ 3.5 to 14 µM), 4 to 32 µg/mL (≈ 3.5 to 28 µM) and 4 to 32 µg/mL (≈ 3.5 to 28 µM), respectively.
